In patent publication US6020341A, “Enediyne quinone imines and methods of preparation and use thereof” (priority 1997, dated 2000):
Like-named read-outs stand apart in the source and are kept apart here.

What was measured:
[1] = tested on: Human breast adenocarcinoma cells (SK-Br-3); assay: Cytotoxicity, SK-Br-3; assay type: cell-based; details: for IC50 / IC90: Homo sapiens; for IC90: read-out: Cytotoxic Concentration IC90
Description: (§1) | cell growth by 50% (IC50) in μM.

[2] = tested on: Human testicular teratocarcinoma cells (833K); assay: Cytotoxicity, 833K; assay type: cell-based; details: for IC50 / IC90: Homo sapiens, 833K; for IC90: read-out: Cytotoxic Concentration IC90
Description: as §1

[3] = tested on: Chinese hamster lung cells (DC-3F); assay: Cytotoxicity, DC-3F; assay type: cell-based; details: for IC50 / IC90: Cricetulus griseus, DC3F; for IC90: read-out: Cytotoxic Concentration IC90
Description: as §1

MT-4 leukemic cells = assay: Growth inhibition, XTT assay, MT-4; assay type: cell-based; details: Table 8, MT-4, XTT
Method: Cells were platted on day 1, drug was added on day 2, and XTT assays (for HL-60, MT-2, MT-4 leukemic cells) or SRB assays (for 833K and SK-Br-3 solid tumor cells) were carried out on day 5.

MT4 cells = assay: Cytotoxicity, MT4; assay type: cell-based; details: Table 15, MT4
MT2 cells = assay: Cytotoxicity, MT2; assay type: cell-based; details: Table 15, MT2
[4] = tested on: Lewis lung adenocarcinoma; assay: Anticancer activity in B6D2F1 mice bearing Lewis lung adenocarcinoma; assay type: in vivo, mouse
Method: ^a Tumor (2.5 × 10E6 cells) was inoculated S.C. on day (-3).
Treatment started on day 1, I.P., Q.D.X5. Control had 6 mice and each dos
had 5 mice. Tumor size was evaluated on day 7, day 10 and day 14.

solid tumor = assay: In vivo toxicity and efficacy in tumor bearing mice (Tables 5-7); set-up: species or system mouse; details: i.p., in words
[5] = Homo sapiens, read-out: Cytotoxic Concentration IC50
[6] = Homo sapiens, read-out: Cytotoxic Concentration IC90
[7] = Table 11, 0.5 mg/kg i.p. Q.D.X5, Day 7
[8] = Table 11, 0.5 mg/kg i.p. Q.D.X5, Day 10
[9] = Table 11, 1.0 mg/kg i.p. Q.D.X5, Day 7
[10] = Table 11, 1.0 mg/kg i.p. Q.D.X5, Day 10
[11] = Table 11, 1.5 mg/kg i.p. Q.D.X5, Day 7
[12] = Table 11, 1.5 mg/kg i.p. Q.D.X5, Day 10
[13] = Table 11, 2.0 mg/kg i.p. Q.D.X5, Day 7
[14] = Table 11, 2.0 mg/kg i.p. Q.D.X5, Day 10

CO[C@@]12[C@H](COC(N)=O)C3=C(C(=O)C(C)=C(N)C3=O)N1C[C@@H]1N[C@@H]12 [mitomycin C]
IC50 ([1]; SK-BR-3, Table 2, SK-Br-3 (Breast), read-out: concentration required to inhibit cell growth by 50% (IC50)): 993 nM
IC50 ([1]; SK-BR-3, Table 4, SK-Br-3, read-out: Cytotoxic Concentration IC50): 993 nM
IC90 ([1]; SK-BR-3, Table 4, SK-Br-3): 21800 nM
IC50 ([1]; SK-BR-3, Table 13, SK-Br-3, read-out: Cytotoxic Concentration IC50): 2340 nM
IC90 ([1]; SK-BR-3, Table 13, SK-Br-3): 62900 nM
Cytotoxic Concentration IC95 ([1]; Table 4, SK-Br-3): 62300 nM
ratio of IC50 to EQI-6 (in parentheses) ([1]; Table 4, SK-Br-3, EQI-6 = (1)): 29.2 ×
ratio of IC90 to EQI-6 (in parentheses) ([1]; Table 4, SK-Br-3, EQI-6 = (1)): 16.6 ×
ratio of IC95 to EQI-6 (in parentheses) ([1]; Table 4, SK-Br-3, EQI-6 = (1)): 187.7 ×
Cytotoxic Concentration IC95 ([1]; Table 13, SK-Br-3): 192890 nM
IC50 ([2]; Table 2, 833K (Testicular), read-out: concentration required to inhibit cell growth by 50% (IC50)): 318 nM
IC50 ([2]; Table 4, 833k, read-out: Cytotoxic Concentration IC50): 318 nM
IC90 ([2]; Table 4, 833k): 1530 nM
IC50 ([2]; Table 15, 833K, read-out: Cytotoxic Concentration IC50): 394 nM
IC90 ([2]; Table 15, 833K): 2290 nM
Cytotoxic Concentration IC95 ([2]; Table 4, 833k): 2610 nM
ratio of IC50 to EQI-6 (in parentheses) ([2]; Table 4, 833k, EQI-6 = (1)): 45.4 ×
ratio of IC90 to EQI-6 (in parentheses) ([2]; Table 4, 833k, EQI-6 = (1)): 61.2 ×
ratio of IC95 to EQI-6 (in parentheses) ([2]; Table 4, 833k, EQI-6 = (1)): 66.9 ×
Cytotoxic Concentration IC95 ([2]; Table 15, 833K): 4155 nM
IC50 ([3]; Table 2, DC-3F, read-out: concentration required to inhibit cell growth by 50% (IC50)): 81 nM
IC50 ([3]; Table 4, DC-3F, read-out: Cytotoxic Concentration IC50): 81.2 nM
IC90 ([3]; Table 4, DC-3F): 374 nM
IC50 ([3]; Table 13, DC-3F, read-out: Cytotoxic Concentration IC50): 59 nM
IC90 ([3]; Table 13, DC-3F): 166 nM
Cytotoxic Concentration IC95 ([3]; Table 4, DC-3F): 629 nM
ratio of IC50 to EQI-6 (in parentheses) ([3]; Table 4, DC-3F, EQI-6 = (1)): 45.1 ×
ratio of IC90 to EQI-6 (in parentheses) ([3]; Table 4, DC-3F, EQI-6 = (1)): 34 ×
ratio of IC95 to EQI-6 (in parentheses) ([3]; Table 4, DC-3F, EQI-6 = (1)): 31.6 ×
Cytotoxic Concentration IC95 ([3]; Table 13, DC-3F): 235 nM
IC50 (MT-4 leukemic cells): 150 nM
IC50 (MT4 cells; [5]): 115 nM
IC90 (MT4 cells; [6]): 253 nM
Cytotoxic Concentration IC95 (MT4 cells): 331 nM
IC50 (MT2 cells; [5]): 169 nM
IC90 (MT2 cells; [6]): 398 nM
Cytotoxic Concentration IC95 (MT2 cells): 532 nM
AWC (average weight change) [4, 7]: -1.5 g
Avg Tumor Vol (T/C) [4, 7]: 0.530
AWC (average weight change) [4, 8]: -0.1 g
Avg Tumor Vol (T/C) [4, 8]: 0.712
AWC (average weight change) [4, 9]: -0.8 g
Avg Tumor Vol (T/C) [4, 9]: 0.380
AWC (average weight change) [4, 10]: -0.9 g
Avg Tumor Vol (T/C) [4, 10]: 0.451
AWC (average weight change) [4, 11]: -1.5 g
Avg Tumor Vol (T/C) [4, 11]: 0.340
AWC (average weight change) [4, 12]: -1.3 g
Avg Tumor Vol (T/C) [4, 12]: 0.402
mortality ([4]; Table 11, 2.0 mg/kg i.p. Q.D.X5): One of 5 mice died on day 7
AWC (average weight change) [4, 13]: -1.8 g
Avg Tumor Vol (T/C) [4, 13]: 0.286
AWC (average weight change) [4, 14]: 1.6 g
Avg Tumor Vol (T/C) [4, 14]: 0.485
solid tumor growth inhibition / therapeutic efficacy (solid tumor): Therapeutic efficacy in mice for both appeared similar
